Assay results as given in patent publication US20140051696A1, “THERAPIES FOR TREATING CANCER” (GILEAD CALISTOGA LLC, priority 2012, published 2014).
“Also recorded” adds a separate entry of the source. Where two headings read alike, the source gives them in different places.

Columns and labels:
CCL2, CCL3, and CCL4 = experiment: Chemokine release ELISA, CLL patient samples in conditioned media; assay type: cell-based, human; conditions: patient samples cultured in conditioned media; alone and in combination
Method: (§3) In this Example, CLL patient samples were assessed for growth inhibition, chemokine release, and pathway activation status using a tetrazolium-based MTS assay, ELISA, and flow cytometry, respectively. Peripheral blood mononuclear cells (PBMCs) were isolated from primary patient samples using a Ficoll-Paque gradient. […] 5×10^5 primary cells were cultured in triplicate in HS-5 stromal cell conditioned media and growth inhibition was determined after 72 hours.

[1] = Plasma pharmacokinetics in healthy human subjects, alone or in combination; conditions: for AUC / Cmax: human, Mean (% CV); for AUC: AUCtau
Method: On Day 1, PK samples were collected at pre-dose, 2, 4, 8, and 12 hours post dose. On Day 4, samples were collected relative to the AM dose of study drug(s) at the following time points: pre-dose, 1, 2, 2.5, 3, 4, 6, 8, 10, 12, 18, 24, 36, and 48 hours post dose. Trough PK samples were collected on Day 3 prior to dosing.

[2] = system: AKT phosphorylation (S473) in CLL cells; experiment: Flow cytometry phospho-Akt in CLL cells co-cultured with HS5 stromal cells; assay type: cell-based, human; conditions: CLL cells of 15 patients co-cultured with HS5 stromal cells
Source text: (§1) Ficoll purified CLL cells obtained from 15 patients were co-cultured with HS5 stromal cells then treated with each compound alone or in combination. CLL cells were stained with anti-CD5-FITC and either anti-phospho-Akt S473 (Alexa Fluor 488), phospho-S6 or an […] control antibody (mouse IgG1-Alexa Fluor 488 conjugate, Cell Signaling) and analyzed by 2-color flow cytometry.

[3] = system: S6 phosphorylation in CLL cells; experiment: Flow cytometry phospho-S6 in CLL cells co-cultured with HS5 stromal cells; assay type: cell-based, human; conditions: CLL cells of 15 patients co-cultured with HS5 stromal cells
Source text: as §1

[4] = system: AKT phosphorylation (S473) in Ramos cells; experiment: Immunoblot phospho-Akt in Ramos cells after anti-IgM BCR stimulation; assay type: cell-based, human; conditions: 1 uM each, IgM mediated BCR stimulation
Method: (§2) 5×10^6 Ramos (a Burkitt's cell line with intact BCR) were plated and treated with 1 uM of Compound A, 1 uM of Compound B, alone or in combination for 25 hours. Twenty μg Goat F(ab′)2 anti-human IgM (Invitrogen) was added to stimulate the BCR for 30 minutes. Protein were isolated and analyzed using immune-blotting with phospho-Akt (S473), phospho-Erk (T202/Y204), and phospho-S6.

WSU-FSCCL parental cells = experiment: AlamarBlue growth inhibition, WSU-FSCCL parental cells; assay type: cell-based, human; conditions: initially, 72 hr
Method: The WSU-FSCCL parental cells were, initially, responsive to treatment of Compound A (FIG. 10A). […] Such cells were cultured and referred to as WSU-FSCCL resistant cells. This reflects a commonly observed clinical situation that patients become resistance or no longer respond to the existing treatment. Both the parental and the resistant cells of WSU-FSCCL were used in this study.
A 7× serial dilution of Compound A and Compound C from a stock of 10 mM (DMSO) was prepared using RPMI+10% FBS (270 μM). The WS-FSCCL cells were added with the compounds in the serial dilution and incubated at 37° C. for 72 hr, followed by the addition of 12.5 μL AlamarBlue (Invitrogen #DAL1100). Plates were then incubated at 37° C. for 4 hours.
The change of color from uptake of the stains in the living cells was measured for absorbance. Fluorescence Ex530, Em590, Cutoff570 on Spectramax M5 (Molecular Dynamics) were determined. To calculate the 50% inhibition of growth (GI50), the reading from the samples were compared to the controls (100% or 0% absorption).

[5] = system: WSU-FSCCL resistant cells; experiment: AlamarBlue growth inhibition, WSU-FSCCL resistant cells; assay type: cell-based, human; conditions: 72 hr
Method: The WSU-FSCCL parental cells were, initially, responsive to treatment of Compound A (FIG. 10A). […] Such cells were cultured and referred to as WSU-FSCCL resistant cells. This reflects a commonly observed clinical situation that patients become resistance or no longer respond to the existing treatment. Both the parental and the resistant cells of WSU-FSCCL were used in this study. […] The […] cells were added with the compounds in the serial dilution and incubated at 37° C. for 72 hr, followed by the addition of 12.5 μL AlamarBlue (Invitrogen #DAL1100). Plates were then incubated at 37° C. for 4 hours. The change of color from uptake of the stains in the living cells was measured for absorbance. Fluorescence Ex530, Em590, Cutoff570 on Spectramax M5 (Molecular Dynamics) were determined.

[6] = Safety and tolerability in healthy human subjects; conditions: for tolerability: over the dose range evaluated, healthy subjects
Source text: The endpoints evaluated include AEs, physical examination and clinical laboratory test findings, 12-lead ECG abnormalities and interval measurements, and vitals signs measurements.
Safety data for each cohort was reviewed after the 10-day observation period following each 4 day treatment period. Subsequent treatments in each cohort were only initiated following post dose safety assessments.

[7] = system: ERK phosphorylation (T202/Y204) in Ramos cells; experiment: Immunoblot phospho-Erk in Ramos cells after anti-IgM BCR stimulation; assay type: cell-based, human; conditions: 1 uM each, IgM mediated BCR stimulation
Method: as §2

primary CLL cells = experiment: MTS cell viability assay of primary CLL cells in HS-5 conditioned media; conditions: Homo sapiens
Method: as §3
Peripheral blood (PB) or bone marrow (BM) was collected from 14 CLL patients with untreated, relapsed, or refractory diseases. Mononuclear cells were isolated using a Ficoll-Paque gradient and were plated in triplicate into 96-well containing HS-5 conditioned media plus equimolar concentrations of Compound A and Compound B (10 μM to 0.61 nM). After 72 hours, viability was determined by MTS assay (CellTiter 96, Promega).

recurrent CLL = conditions: cited from earlier work; for median progression-free survival (PFS): patients with recurrent CLL
[8] = Compound A analyte, Compound A 150 mg + Compound B 600 mg vs Compound A 150 mg
[9] = Compound A analyte, Compound A 100 + Compound B 200 or 600 mg vs Compound A 100 mg
[10] = plasma, oral, 100 mg, Compound A analyte, Compound A 100 mg BID alone, fed (N = 16)
[11] = plasma, oral, 150 mg, Compound A analyte, Compound A 150 mg BID alone, fed (N = 7)
[12] = plasma, oral, Compound A analyte, Compound A 150 mg + Compound B 600 mg BID, fed (N = 6)
[13] = plasma, oral, Compound A analyte, Compound A 100 + Compound B 200 or 600 mg BID, fed (N = 16)
[14] = Compound B analyte, Compound B 200 mg + Compound A 100 mg vs Compound B 200 mg
[15] = Compound B analyte, Compound B 600 mg + Compound A 100/150 mg vs Compound B 600 mg
[16] = in vivo, 200 mg, Compound B analyte, Compound B 200 mg BID alone, fed (N = 8)
[17] = in vivo, 600 mg, Compound B analyte, Compound B 600 mg BID alone, fed (N = 16)
[18] = in vivo, Compound B analyte, Compound B 200 mg + Compound A 100 mg BID, fed (N = 8)
[19] = in vivo, Compound B analyte, Compound B 600 mg + Compound A 100/150 mg BID, fed (N = 14)

## CC[C@H](Nc1ncnc2[nH]cnc12)c1nc2cccc(F)c2c(=O)n1-c1ccccc1 [Compound A, (S)-2-(1-(9H-purin-6-ylamino)propyl)-5-fluoro-3-phenylquinazolin-4(3H)-one]
CCL2, CCL3, and CCL4
  production of CCL2, CCL3, and CCL4 by CLL cells: reduced
[1]; Compound A analyte, Compound A 100 mg BID alone, fed (N = 16)
  Ctau, Mean (% CV): 127 (44) ng/ml
[1]; Compound A analyte, Compound A 150 mg + Compound B 600 mg BID, fed (N = 6)
  Ctau, Mean (% CV): 411 (29) ng/ml
[1]; [8]
  AUCtau, % Geometric Least Squares Means Ratio (90% CI), Combination vs. Alone: 1.11 (1.00, 1.24) %
  Cmax, % Geometric Least Squares Means Ratio (90% CI), Combination vs. Alone: 1.06 (0.93, 1.21) %
  Ctau, % Geometric Least Squares Means Ratio (90% CI), Combination vs. Alone: 1.23 (1.03, 1.47) %
[1]; Compound A analyte, Compound A 150 mg BID alone, fed (N = 7)
  Ctau, Mean (% CV): 320 (43) ng/ml
[1]; Compound A analyte, Compound A 100 + Compound B 200 or 600 mg BID, fed (N = 16)
  Ctau, Mean (% CV): 170 (50) ng/ml
[1]; [9]
  AUCtau, % Geometric Least Squares Means Ratio (90% CI), Combination vs. Alone: 1.17 (1.13, 1.22) %
  Cmax, % Geometric Least Squares Means Ratio (90% CI), Combination vs. Alone: 1.13 (1.07, 1.20) %
  Ctau, % Geometric Least Squares Means Ratio (90% CI), Combination vs. Alone: 1.33 (1.20, 1.48) %
[1]; healthy subjects
  exposure of Compound A, combination vs alone: minor variations
[1]; [10]
  AUC: 8070 ng·h/mL
  Cmax: 1660 ng/mL
[1]; [11]
  AUC: 13800 ng·h/mL
  Cmax: 2680 ng/mL
[1]; [12]
  AUC: 15800 ng·h/mL
  Cmax: 2870 ng/mL
[1]; [13]
  AUC: 9510 ng·h/mL
  Cmax: 1880 ng/mL
[2]
  AKT phosphorylation in CLL cells: inhibited or decreased
[3]
  S6 phosphorylation in CLL cells: inhibited or decreased
[4]
  AKT phosphorylation in Ramos cells: inhibited or decreased
WSU-FSCCL parental cells
  response of WSU-FSCCL parental cells to treatment: responsive
[5]
  cell viability / sensitivity of WSU-FSCCL resistant cells: became resistant to the treatment
[6]; one individual, during Compound A 150 mg dosing
  adverse event leading to discontinuation of treatment: Grade 1 ALT/AST elevation
[6]
  tolerability: generally well-tolerated

## c1cn2cc(-c3ccc4cn[nH]c4c3)nc(Nc3ccc(N4CCOCC4)cc3)c2n1 [Compound B, 6-(1H-indazol-6-yl)-N-(4-morpholinophenyl)imidazo[1,2-a]pyrazin-8-amine]
CCL2, CCL3, and CCL4
  production of CCL2, CCL3, and CCL4 by CLL cells: reduced
[1]; Compound B analyte, Compound B 200 mg + Compound A 100 mg BID, fed (N = 8)
  Ctau, Mean (% CV): 380 (62) ng/ml
[1]; [14]
  AUCtau, % Geometric Least Squares Means Ratio (90% CI), Combination vs. Alone: 1.64 (1.41, 1.91) %
  Cmax, % Geometric Least Squares Means Ratio (90% CI), Combination vs. Alone: 1.50 (1.24, 1.80) %
  Ctau, % Geometric Least Squares Means Ratio (90% CI), Combination vs. Alone: 1.96 (1.61, 2.38) %
[1]; Compound B analyte, Compound B 200 mg BID alone, fed (N = 8)
  Ctau, Mean (% CV): 201 (661) ng/ml
[1]; Compound B analyte, Compound B 600 mg + Compound A 100/150 mg BID, fed (N = 14)
  Ctau, Mean (% CV): 1120 (72) ng/ml
[1]; [15]
  AUCtau, % Geometric Least Squares Means Ratio (90% CI), Combination vs. Alone: 1.51 (1.30, 1.75) %
  Cmax, % Geometric Least Squares Means Ratio (90% CI), Combination vs. Alone: 1.38 (1.20, 1.59) %
  Ctau, % Geometric Least Squares Means Ratio (90% CI), Combination vs. Alone: 1.74 (1.48, 2.03) %
[1]; Compound B analyte, Compound B 600 mg BID alone, fed (N = 16)
  Ctau, Mean (% CV): 832 (82) ng/ml
[1]; [16]
  AUC: 4150 ng·h/mL
  Cmax: 618 ng/mL
[1]; [17]
  AUC: 12700 ng·h/mL
  Cmax: 1570 ng/mL
[1]; [18]
  AUC: 6750 ng·h/mL
  Cmax: 915 ng/mL
[1]; [19]
  AUC: 16000 ng·h/mL
  Cmax: 1900 ng/mL
[2]
  AKT phosphorylation in CLL cells: inhibited or decreased
[3]
  S6 phosphorylation in CLL cells: inhibited or decreased
[4]
  AKT phosphorylation in Ramos cells: inhibited or decreased
[7]
  ERK phosphorylation in Ramos cells: inhibit or reduced; also recorded: near complete inhibition or reduction
[6]
  tolerability: generally well-tolerated
Primary CLL cells; 72 h, read-out: median cell viability IC50
  IC50: 3.7 µM
Primary CLL cells; read-out: cell viability IC50 obtained in 7 samples (50%)
  IC50: ≤ 2 µM

## alemtuzumab
Recurrent CLL
  median progression-free survival (PFS): 4.7 months

## ofatumumab
Recurrent CLL
  median progression-free survival (PFS): 5.8 months

## rituximab
Recurrent CLL; addition of high-dose methylprednisone to rituximab
  median PFS: 12 months
